Data from PubChem BioAssay AID330 (DTP/NCI, 2004).
Values joined by “and” are separate entries in the source; they are usually repeats but may differ in a detail not shown here. Equal values may be shown once. Toxic doses and inconclusive results are not listed. How the source made its calls: active means survival T/C of 150% or more; inactive means T/C below 125% in these data.

Test system: P388 leukemia ip, CD2F1 mice, survival T/C
Assay: NCI In Vivo Anticancer Drug Screen. Data for tumor model P388 Leukemia (intraperitoneal) in CD2F1 (CDF1) mice
Settings: endpoint: median survival time, higher = longer survival
Procedure, shortened: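 Mice carrying the transplanted tumor received test compound or vehicle. Survival was recorded in each group, and the value is the treated-group measurement divided by that of the vehicle-treated control group.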

[1] = dose: 100.0 mg/kg/injection, schedule: Q01DX001 (ip), vehicle: saline
[2] = dose: 50.0 mg/kg/injection, schedule: Q01DX009 (ip), vehicle: saline
[3] = dose: 100.0 mg/kg/injection, schedule: Q01DX009 (ip), vehicle: saline
[4] = dose: 200.0 mg/kg/injection, schedule: Q01DX009 (ip), vehicle: saline
[5] = dose: 50.0 mg/kg/injection, schedule: Q01DX009 (ip), vehicle: saline with Tween-80
[6] = dose: 100.0 mg/kg/injection, schedule: Q01DX009 (ip), vehicle: saline with Tween-80
[7] = dose: 200.0 mg/kg/injection, schedule: Q01DX009 (ip), vehicle: saline with Tween-80
[8] = dose: 12.5 mg/kg/injection, schedule: Q01DX009 (ip), vehicle: distilled water + Tween-80
[9] = dose: 200.0 mg/kg/injection, schedule: Q04DX003 (ip), vehicle: saline with Tween-80
[10] = dose: 60.0 mg/kg/injection, schedule: Q01DX005 (ip), vehicle: saline with Tween-80
[11] = dose: 120.0 mg/kg/injection, schedule: Q01DX005 (ip), vehicle: saline with Tween-80
[12] = dose: 240.0 mg/kg/injection, schedule: Q01DX005 (ip), vehicle: saline with Tween-80
[13] = dose: 50.0 mg/kg/injection, schedule: Q01DX005 (ip), vehicle: saline with Tween-80
[14] = dose: 100.0 mg/kg/injection, schedule: Q01DX005 (ip), vehicle: saline with Tween-80
[15] = dose: 200.0 mg/kg/injection, schedule: Q01DX005 (ip), vehicle: saline with Tween-80

Measured: T/C

O=S(=O)(O)C1CCC(O)C2[N-]CCCC21.O=S(=O)(O)C1CCC(O)C2[N-]CCCC21.[Ni+2] (configuration not stated)
inactive: dose: 25.0 mg/kg/injection, schedule: Q01DX001 (ip), vehicle: saline 100 % of control | dose: 50.0 mg/kg/injection, schedule: Q01DX001 (ip), vehicle: saline 100 % of control | [1] 110 % of control

O=S(=O)(Cl)C(F)(F)C(F)(F)C(F)(F)C(F)(F)F
inactive: [2] 102 % of control | [3] 103 % of control | [4] 88 % of control

NN1CC(=O)N(c2ccccc2)CC1=O
inactive: [5] 100 % of control | [6] 94 % of control | [7] 94 % of control

CON(C)CC(Cl)c1ccccc1 (configuration not stated)
inactive: dose: 12.5 mg/kg/injection, schedule: Q01DX009 (ip), vehicle: saline with Tween-80 109 % of control | dose: 25.0 mg/kg/injection, schedule: Q01DX009 (ip), vehicle: saline with Tween-80 109 % of control | [5] 104 % of control

CCN(CC)CCSCCCNc1cc(C)nc2c1ccc1c2ccc2c(NCCCSCCN(CC)CC)cc(C)nc21
inactive: dose: 1.56 mg/kg/injection, schedule: Q01DX009 (ip), vehicle: distilled water + Tween-80 100 % of control | dose: 3.12 mg/kg/injection, schedule: Q01DX009 (ip), vehicle: distilled water + Tween-80 102 % of control | dose: 6.25 mg/kg/injection, schedule: Q01DX009 (ip), vehicle: distilled water + Tween-80 104 % of control | [8] 100 % of control

CCCCNC(=S)NC(c1ccc(OC)cc1)C(CC)c1ccc(OC)cc1 (configuration not stated)
inactive: dose: 100.0 mg/kg/injection, schedule: Q04DX002 (ip), vehicle: saline with Tween-80 90 % of control | dose: 200.0 mg/kg/injection, schedule: Q04DX002 (ip), vehicle: saline with Tween-80 88 % of control | dose: 400.0 mg/kg/injection, schedule: Q04DX002 (ip), vehicle: saline with Tween-80 90 % of control

Cn1cc(O)c(=O)n(C)c1=O
inactive: dose: 100.0 mg/kg/injection, schedule: Q04DX003 (ip), vehicle: saline with Tween-80 99 % of control | [9] 105 % of control | dose: 400.0 mg/kg/injection, schedule: Q04DX003 (ip), vehicle: saline with Tween-80 100 % of control

O=C1OC(=O)C2CCC12 (configuration not stated)
inactive: [5] 106 % of control | dose: 60.0 mg/kg/injection, schedule: Q01DX005 (ip), vehicle: saline 93 % of control | [6] 106 % of control | dose: 120.0 mg/kg/injection, schedule: Q01DX005 (ip), vehicle: saline 89 % of control | [7] 97 % of control | dose: 240.0 mg/kg/injection, schedule: Q01DX005 (ip), vehicle: saline 86 % of control

CC1=CC2=C(C(N)=O)C(=O)OC2(C)C(c2ccccc2)C1 (configuration not stated)
inactive: [10] 101 % of control | [11] 101 % of control | [12] 100 % of control

CC(=O)C1C(=O)C(=O)N(Cc2ccccc2)C1=O (configuration not stated)
inactive: dose: 50.0 mg/kg/injection, schedule: Q01DX009 (ip), vehicle: Klucel (hydroxypropylcellulose) (HPC) 96 % of control | dose: 100.0 mg/kg/injection, schedule: Q01DX009 (ip), vehicle: Klucel (hydroxypropylcellulose) (HPC) 114 % of control | dose: 200.0 mg/kg/injection, schedule: Q01DX009 (ip), vehicle: Klucel (hydroxypropylcellulose) (HPC) 100 % of control

CCC1(O)CC(OC2CC(N(C)C)C(OC3CC4OC5CC(=O)C(C)OC5OC4C(C)O3)C(C)O2)c2c(cc3c(c2O)C(=O)c2c(O)ccc(O)c2C3=O)C1C(=O)OC (configuration not stated)
active: dose: 2.0 mg/kg/injection, schedule: Q04DX003 (ip), vehicle: saline with Tween-80 170 % of control
inactive: dose: 0.5 mg/kg/injection, schedule: Q04DX003 (ip), vehicle: other 123 % of control | dose: 0.5 mg/kg/injection, schedule: Q04DX003 (ip), vehicle: saline with Tween-80 112 % of control and 110 % of control and 118 % of control | dose: 0.5 mg/kg/injection, schedule: Q04DX003 (ip), vehicle: water 113 % of control | dose: 0.64 mg/kg/injection, schedule: Q04DX003 (ip), vehicle: water 109 % of control | dose: 1.0 mg/kg/injection, schedule: Q04DX003 (ip), vehicle: water 119 % of control | dose: 1.08 mg/kg/injection, schedule: Q04DX003 (ip), vehicle: water 115 % of control | dose: 1.8 mg/kg/injection, schedule: Q04DX003 (ip), vehicle: water 118 % of control | dose: 1.94 mg/kg/injection, schedule: Q04DX003 (ip), vehicle: water 118 % of control | dose: 3.24 mg/kg/injection, schedule: Q04DX003 (ip), vehicle: water 124 % of control | dose: 5.0 mg/kg/injection, schedule: Q04DX003 (ip), vehicle: water 114 % of control

CC1(C)N=C(N)N=C(N)N1c1ccc(CNC(=O)Nc2ccc(S(=O)(=O)F)cc2)c(Cl)c1
active: dose: 132.0 mg/kg/injection, schedule: Q04DX003 (ip), vehicle: saline with Tween-80 154 % of control | [9] 154 % of control

O=C(O)C1=C(C(=O)Nc2ccc(NC(=O)C3=C(C(=O)O)CCC3)cc2)CCC1
inactive: [8] 93 % of control | dose: 25.0 mg/kg/injection, schedule: Q01DX009 (ip), vehicle: distilled water + Tween-80 98 % of control | dose: 50.0 mg/kg/injection, schedule: Q01DX009 (ip), vehicle: distilled water + Tween-80 97 % of control | dose: 100.0 mg/kg/injection, schedule: Q01DX009 (ip), vehicle: distilled water + Tween-80 105 % of control | dose: 200.0 mg/kg/injection, schedule: Q01DX009 (ip), vehicle: distilled water + Tween-80 115 % of control

CCOC1OCN(Cc2ccccc2)CC1(C)C (configuration not stated)
inactive: [5] 114 % of control | [6] 115 % of control | [7] 117 % of control

CCCCN1C(=O)C2C3C=CC(C2C1=O)C1C2C(=O)N(CCCC)C(=O)C2C31 (configuration not stated)
inactive: dose: 100.0 mg/kg/injection, schedule: Q01DX001 (ip), vehicle: saline with Tween-80 93 % of control | dose: 200.0 mg/kg/injection, schedule: Q01DX001 (ip), vehicle: saline with Tween-80 93 % of control | dose: 400.0 mg/kg/injection, schedule: Q01DX001 (ip), vehicle: saline with Tween-80 90 % of control

CC1(C)OC1(C(=O)C=[N+]=[N-])c1ccccc1 (configuration not stated)
inactive: dose: 25.0 mg/kg/injection, schedule: Q01DX005 (ip), vehicle: saline with Tween-80 96 % of control | [13] 99 % of control | [14] 96 % of control | [15] 103 % of control

CN1CCCC(OC(=O)Oc2ccccc2)C1 (configuration not stated)
inactive: dose: 50.0 mg/kg/injection, schedule: Q01DX001 (ip), vehicle: other 101 % of control | dose: 100.0 mg/kg/injection, schedule: Q01DX001 (ip), vehicle: other 100 % of control | dose: 200.0 mg/kg/injection, schedule: Q01DX001 (ip), vehicle: other 102 % of control | dose: 400.0 mg/kg/injection, schedule: Q01DX001 (ip), vehicle: other 99 % of control

CCCCn1c2c(c3ccccc3c1=O)C(=O)c1ccccc1-2
inactive: [13] 92 % of control | [14] 91 % of control | [15] 88 % of control

O=C(CCCl)Nc1ccc(C(=O)CCc2cccc(NC(=O)CCCl)c2)cc1
inactive: [10] 100 % of control | [11] 97 % of control | [12] 89 % of control

N=C1/C(=C\c2ccccc2O)C(=O)NN1C(=O)c1ccncc1
inactive: [1] 103 % of control | dose: 200.0 mg/kg/injection, schedule: Q01DX001 (ip), vehicle: saline 98 % of control | dose: 400.0 mg/kg/injection, schedule: Q01DX001 (ip), vehicle: saline 104 % of control

CSc1nc(Cl)c(Cl)c(C(F)(F)F)n1
inactive: [13] 103 % of control

COC(=O)C1NC(C(O)C(O)C(O)C(O)CO)SC1(C)C (configuration not stated)
inactive: [2] 94 % of control | [3] 102 % of control | [4] 100 % of control

CCOC(=O)NOP(=O)(N1CC1)N1CC1
active: dose: 100.0 mg/kg/injection, schedule: Q01DX001 (ip), vehicle: saline + alcohol 238 % of control
inactive: dose: 12.5 mg/kg/injection, schedule: Q01DX001 (ip), vehicle: saline + alcohol 109 % of control and 124 % of control | dose: 25.0 mg/kg/injection, schedule: Q01DX001 (ip), vehicle: saline + alcohol 111 % of control
